In article PMC6443933, “Antagonizing Retinoic Acid-Related-Orphan Receptor Gamma Activity Blocks the T Helper 17/Interleukin-17 Pathway Leading to Attenuated Pro-inflammatory Human Keratinocyte and Skin Responses” (Frontiers in Immunology, 2019):

Legend:
HaCaT keratinocytes = assay: IL-17-driven HaCaT keratinocyte responses (Th17 supernatants or spiked cytokines), qRT-PCR; assay type: cell-based, human; settings: supernatants of Th17 cells treated with 10 μM vs 0.13 nM, 24 h
Description: The HaCaT keratinocyte cell line was purchased from AddexBio and was maintained in RPMI 1640 medium supplemented with Glutamax, Penicillin/Streptomycin (all from Gibco) and 10% FCS (PAA). Normal primary human epidermal keratinocytes (NHEKs) were purchased from Lonza and PromoCell, respectively. Cells were cultured in Keratinocyte basal growth medium (KBM; Lonza) containing KGM2 growth supplements including insulin, human epidermal growth factor, bovine pituitary extract, hydrocortisone, epinephrine, transferrin, and gentamicin/amphotericin B (Lonza). HaCaT cells were incubated in a 96-well-microtiter plate (2 × 10^4 cells/well) with Th17 cytokine-containing supernatants obtained from total CD4^+ T-cells that were polarized for 72 h in the presence of anti-CD3/CD28 antibodies and a Th17 polarization cocktail as described above. […] Cytokine concentrations in supernatants were determined from representative experiments and they contained approximately 150 pg/ml or 600 pg/ml of IL-17 in 10 μM or in 0.13 nM treated samples, respectively. The TNF-α concentration was similar in supernatants exposed to low or high Cpd A concentrations and was 4 ng/ml. To study the impact of the IL-17 cytokine, IL-17 in the supernatants and in the spike-in cocktails was neutralized by a 0.5 h pre-incubation with an IL-17-specific antibody [0.75 μg/ml; Secukinumab (Cosentyx®, Novartis)]. All cultures were incubated in triplicates and after a 24 h incubation period, HaCaT cells (6 × 10^4 cells/sample) and NHEKs (1 × 10^5 cells/sample) were harvested and further processed for qRT-PCR analysis.
Total RNA from human Th17 cells (6 × 10^5 cells), RORγt-RORE HUT78 cells (4 × 10^5 cells) and HaCaT cells (6 × 10^4 cells) was extracted using RNeasy kit including a DNAse I digestion step according to the manufacturer‘s protocol (Qiagen). Frozen skin biopsies (8 mm punches) were resuspended in RLT buffer (Qiagen) containing 1% β-mercaptoethanol and homogenized using a Precellys-Cryolys device (Bertin Instruments) according to the manufacturer's instructions. cDNAs were prepared with the High Capacity cDNA Reverse Transcription Kit (Applied Biosystems). Quantitative RT-PCR analysis was performed using a TaqManViiA7 (Applied Biosystems). All runs were accompanied by the internal control gene human β-glucoronidase (Gus) (431088E). The samples were run in triplicate or in hexaplicate and normalized to Gus using the ΔΔCt method to provide arbitrary units representing relative expression levels. The following Taqman probes were used for RT-PCR (Thermo Scientific): RORC (Hs01076112_m1), IL17A (Hs00936345_m1), IL22 (Hs01574154_m1), IL26 (Hs00218189_m1), IL23R (Hs00332759_m1), CCR6 (Hs00218189_m1), NFKBIZ (Hs00355476_m), DEFB4A (Hs00823638_m1), IL36G (Hs00219742_m1), and CCL20 (Hs00355476_m1).

full-length RORγt = target: T1, full-length RORγt (Homo sapiens, UniProt P51449); assay: 4 x RORE luciferase reporter assay in HUT78 T-cells expressing full-length RORγt; assay type: cell-based; settings: CD3 antibody plus PMA, 48 h, read-out: IC50, 4 x RORE-driven luciferase activity
T1 construct: HUT78 T-cells stably expressing full-length eGFP-RORγt; eGFP; expressed in transfected cells
T1 sequence (P51449 1-497 isoform P51449-2): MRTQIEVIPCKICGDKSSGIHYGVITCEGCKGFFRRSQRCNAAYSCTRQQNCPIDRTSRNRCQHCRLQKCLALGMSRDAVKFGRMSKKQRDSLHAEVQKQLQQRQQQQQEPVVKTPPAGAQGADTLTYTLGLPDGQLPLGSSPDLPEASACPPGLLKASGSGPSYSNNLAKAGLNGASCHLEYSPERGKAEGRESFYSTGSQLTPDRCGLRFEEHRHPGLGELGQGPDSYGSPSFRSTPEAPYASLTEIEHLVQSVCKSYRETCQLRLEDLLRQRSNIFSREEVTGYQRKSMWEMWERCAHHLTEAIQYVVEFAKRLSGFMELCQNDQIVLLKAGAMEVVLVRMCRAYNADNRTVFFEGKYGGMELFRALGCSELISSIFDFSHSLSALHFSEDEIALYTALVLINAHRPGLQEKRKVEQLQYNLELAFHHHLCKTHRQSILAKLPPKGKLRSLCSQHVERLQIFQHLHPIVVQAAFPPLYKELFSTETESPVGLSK
Excerpt: HUT78 T-cells stably expressing full-length eGFP-RORγt or eGFP-empty vector were generated as described before ([45]). Cells were transfected with plasmids containing 4 × ROREs inserted into the pGL4.17 luciferase Firefly reporter plasmid (kindly provided by Dr. Juergen Reinhardt, Novartis). As a control construct, a mutated or a non-functional form of 4 × RORE (Mut-RORE), was transfected in eGFP-RORγt HUT78 T-cells. The plasmids contained the following sequences where the bold nucleotides represent the putative RORγt binding site or the mutated form of the RORE:
Two days after transfection, cells were incubated in X-vivo 15 medium containing 10% FCS and 700 μg/ml Geneticin (Corning) and stable clones expressing the 4 × ROREs or mutated-ROREs were obtained by limiting dilution. The luciferase expression of the individual cell clones was measured using Luciferase detection buffer (Perkin Elmer) and the RORC mRNA expression of the selected clones were quantified by qRT-PCR. […]

IC50 (full-length RORγt): 64 nM
Structure (SMILES): Cc1ccc(C(=O)Nc2cn3ccnc3c(CN3CCN(c4noc(C(C)(C)C)n4)[C@@H](C)C3)c2C)cn1 [Cpd A, (S)-N-(8-((4-(5-(tert-butyl)-1,2,4-oxadiazol-3-yl)-3-methylpiperazin-1-yl)methyl)-7-methylimidazo[1,2-a]pyridin-6-yl)-6-methylnicotinamide]
IL-17 signature genes (NFKBIZ, DEFB4A, CCL20, IL36G) in HaCaT (HaCaT keratinocytes): marked reduction
